Columns and labels:
Primary human T cells = experiment: Cytokine production and degranulation of CDK4 TCR T cells with Zap70-PD1-degron CRASH-IT switch co-cultured with NKIRTIL006 melanoma cells, thalidomide titration; format: cell-based; conditions: as compared to single hybrid, dual zinc finger prior art degron; IFNγ, IL2, TNFα, LAMP-1
Description: FIG. 1: Sensitivity of zinc finger degrons to IMiD can be improved by alteration of the second zinc finger sequence. (A) Schematic representation of a panel of zinc finger degrons containing the ZFP91 ZF4 beta hairpin and IKZF1 ZF2 alpha helix as a hybrid first zinc finger. […] (B-E) Primary human T cells modified with the HLA class I restricted CDK4 TCR plus a Zap70-PD1-degron CRASH-IT switch, in which the degron sequence is selected from (A), were pretreated with indicated concentrations of thalidomide. Data depict intracellular IFNγ, IL2, TNFα, and cell surface LAMP1 expression of CDK4 TCR+, EGFP high, CD8+ T cells upon co-culture with NKIRTIL006 melanoma cells in the continued presence of indicated concentrations of thalidomide. Error bars represent standard deviation (n=2). Data are representative of two independent experiments.
To our knowledge, the possibility of using a hybrid zinc finger as the second zinc finger as a means to improve the overall sensitivity of the dual zinc finger degron system was not tested before. To investigate whether the second zinc finger (IKZF1 ZF3) of the single hybrid, dual zinc finger prior art degron can be replaced with other zinc finger sequences while preserving or improving sensitivity towards IMiDs, we created a panel of CRASH-IT switches containing the zinc finger degrons shown in FIG. 1. […]

[1] = target: IMID/CRBN E3 ligase complex (Homo sapiens, UniProt Q96SW2); conditions: as compared to non-hybrid ZFP91 ZF4 and IKZF1 ZF2 zinc finger degrons; cited from earlier work
Chain of IMID/CRBN E3 ligase complex (Q96SW2 whole entry, one chain of several): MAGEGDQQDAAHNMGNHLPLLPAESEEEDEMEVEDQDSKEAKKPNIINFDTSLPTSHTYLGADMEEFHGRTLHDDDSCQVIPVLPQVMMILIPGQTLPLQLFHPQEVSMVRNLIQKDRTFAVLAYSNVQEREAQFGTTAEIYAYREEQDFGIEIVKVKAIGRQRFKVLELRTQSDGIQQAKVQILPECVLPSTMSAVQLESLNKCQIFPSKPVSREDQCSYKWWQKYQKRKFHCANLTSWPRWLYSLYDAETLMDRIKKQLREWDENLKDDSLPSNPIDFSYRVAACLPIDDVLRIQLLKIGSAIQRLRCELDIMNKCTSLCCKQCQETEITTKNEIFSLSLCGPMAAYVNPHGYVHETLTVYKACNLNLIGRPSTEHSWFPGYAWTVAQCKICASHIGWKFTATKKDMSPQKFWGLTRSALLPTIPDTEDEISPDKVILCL

[2] = test system: multiple myeloma patients; conditions: high-dose (25 mg per day) cohort; cited from earlier work
Jurkat cells = experiment: SynFinger library screen: CD69 expression of CRASH-IT (Zap70-PD1-degron) transduced Jurkat cells with or without lenalidomide, enrichment index from NGS reads; format: cell-based; conditions: Jurkat cells expressing CRASH-IT switch, 50 nM lenalidomide
Description: […] Jurkat cells were transduced with the SynFinger library (SynFinger containing CRASH-IT switches) at a 12.8% transduction efficiency and sorted for high EGFP expression to enrich transduced cells. For quality control of the SynFinger transduced Jurkat cells, SynFinger sequences were amplified and analyzed by NGS. 10 randomly selected SynFinger encoding DNA sequences or DNA sequences encoding the same SynFinger amino acid sequences but contain 2 nucleotide mismatches due to alternative codon usage were used to assess ability to distinguish true SynFinger sequences from noise in the NGS data. 10/10 SynFinger encoding full-nucleotide sequence match sequences were observed within NGS data whereas the 2 nucleotide mismatch containing sequences were not detected.
Jurkat cells expressing the SynFinger library were treated with 50 nM lenalidomide (a suboptimal dose that activates only ˜50% of cells expressing a CRASH-IT switch containing the parental double hybrid degron in Jurkat cells, as compared to a maximally effective 1000 nM lenalidomide dose) or were mock treated for 24 hours, and subsequently activated with anti-CD3/anti-CD28 antibodies in the presence or absence of 50 nM lenalidomide for 5 hours. Afterwards, cells were stained with IR dye (1:400) and anti-CD69-PE (1:200). Cells were sorted for live (IR dye negative), EGFP high end CD69 high (top 5%) or CD69 low (bottom 5%) expression using Aria Fusion cytometers.
Subsequently, cells were washed with PBS, and cell pellets were frozen at −20° C. until DNA extraction. Genomic DNA was isolated using the DNeasy Blood & Tissue Kit (Qiagen) according to the manufacturer's instructions, using 5×10^6 cells per column. DNA was eluted in 22 μl RNAse free water. Deep sequencing adapters and indexes were added to SynFinger encoding DNA sequences using PCR amplification. Briefly, 3 μg genomic DNA (20 μl), indexed forward and reverse primers (10 μM, 2.5 μl each) and 25 μl NEBNext® High-Fidelity 2×PCR Master Mix were added to the PCR reaction. An optimized PCR reaction (98° C. for 30 s, (98° C. for 10 s, 56° C. for 10 s, 72° C. for 5 s)×25 cycles, 72° C. for 3 min was performed using Eppendorf PCR cyclers.
Indexed PCR products were run on agarose gel, relative DNA concentrations were estimated by measuring band intensity, and 12 indexed PCR reaction products were mixed per MiSeq chip. To increase sequence diversity, samples were mixed with 25% PhiX DNA. In total, 2 MiSeq chips were used (100 bp, single read). To distinguish genuine SynFinger sequences from sequencing errors, results were filtered using a reference list of actual sequences used in SynFinger library design (100% codon match). Sequences with a very low number of reads (sum of all samples below 500 reads) were excluded from analysis.
To identify SynFingers that improve sensitivity of CRASH-IT switches towards lenalidomide while preserving or improving stringency of switch mediated control of T cell activation in the absence of lenalidomide, an enrichment index (EI) value was calculated for each sequence as described below, and SynFingers were ranked according to their EI, with a low EI indicating a SynFinger with desired properties.
CD69-HI and […] read counts from top 100 SynFingers were compared with read counts from the parental double hybrid degron using a two-sided Fisher's exact test to determine enrichment of CD69-HI cells in the presence of lenalidomide and enrichment of CD69-LO cells in the absence of lenalidomide.
To further improve the sensitivity of double hybrid degron towards IMiDs, we performed a high throughput screen using a library of ˜50,200 CRASH-IT variants that encode either single or double amino acid substitutions at the indicated positions of the first hybrid zinc finger sequence, thereby changing 18 amino acids of this zinc finger into any amino acid except cysteine (FIG. 3). […]

| Compound | sensitivity of the CRASH-IT switch towards thalidomide (Primary human T cells) | sensitivity towards IMiD induced degradation [1] | toxicity in maintenance therapy [2] | cells activated at 50 nM lenalidomide as compared to maximally effective 1000 nM lenalidomide dose (Jurkat cells) |
| --- | --- | --- | --- | --- |
| LQCEICGFTCRQKGNLLRHIKLH [single hybrid, single zinc finger degron, ZFP91 ZF4 beta hairpin-IKZF1 ZF2 alpha helix, no second zinc finger, reference compound] | reduced thalidomide sensitivity | increase sensitivity |  |  |
| Nc1cccc2c1CN(C1CCC(=O)NC1=O)C2=O (centres unmarked) [lenalidomide] |  |  | dose reductions due to toxicity, in particular neutropenia, were frequent |  |
| LQCEICGFTCRQKGNLLRHIKLHSGEKPFKCHLCNYACRRKDSVVAHKAKSH [double hybrid degron, ZFP91 ZF4 beta hairpin-IKZF1 ZF2 alpha helix plus IKZF1 ZF3 beta hairpin-ZFP91 ZF5 alpha helix] | improved the sensitivity |  |  | ~50% |

From patent publication US20250206789A1, “ZINC FINGER DEGRON SEQUENCES” (STICHTING HET NEDERLANDS KANKER INSTITUUT-ANTONI VAN …, priority 2022, published 2025)
